The record followed here is PMC7587970, “Lanostane Triterpenoids from the Fruiting Bodies of Fomes officinalis and Their Anti-Inflammatory Activities” (Molecules, 2020).

What is called IC50 is the midpoint of a concentration-inhibition curve.

The target in the assay is T1, cyclooxygenase (COX-2) (Ovis aries, UniProt P79208).
T1 construct: gene PTGS2
T1 sequence (P79208 17-603): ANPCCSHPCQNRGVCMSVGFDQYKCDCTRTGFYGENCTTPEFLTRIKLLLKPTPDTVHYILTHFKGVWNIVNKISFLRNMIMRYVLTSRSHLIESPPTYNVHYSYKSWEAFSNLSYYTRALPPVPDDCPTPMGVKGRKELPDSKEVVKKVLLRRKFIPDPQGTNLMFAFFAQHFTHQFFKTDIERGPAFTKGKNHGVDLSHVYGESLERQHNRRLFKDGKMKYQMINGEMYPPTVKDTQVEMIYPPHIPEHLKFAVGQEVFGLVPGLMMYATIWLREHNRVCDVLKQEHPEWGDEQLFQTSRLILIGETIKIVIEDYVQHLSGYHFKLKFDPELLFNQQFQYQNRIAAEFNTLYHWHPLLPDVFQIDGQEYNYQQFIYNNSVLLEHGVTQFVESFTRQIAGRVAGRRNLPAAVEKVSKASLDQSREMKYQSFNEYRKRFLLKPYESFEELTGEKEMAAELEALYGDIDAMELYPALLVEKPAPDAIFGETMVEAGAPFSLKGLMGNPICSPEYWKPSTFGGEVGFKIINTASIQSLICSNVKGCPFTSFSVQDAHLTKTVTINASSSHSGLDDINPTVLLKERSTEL
The assay can be described thus: COX colorimetric inhibitor screening assay kit (Cayman), ovine recombinant COX-2. The assay is classed as biochemical.

Read-outs that look alike come from different tables or passages of the source.

Take `C[C@@H]1C[C@]2(OC[C@]34[C@H](O)C=C5C(=CC[C@H]6C(C)(C)[C@H](OC(=O)CC(=O)O)CC[C@]56C)[C@]3(C)CC[C@H]14)OC(=O)[C@@H](C)[C@@H]2C` [compound 3, officimalonic acid K]: the half-inhibitory concentration (IC50) (read-out: IC50) turned out to be 30.1 µM.
`COC(=O)CC(=O)O[C@@H]1CC[C@]2(C)C3=C(C(=O)C[C@H]2C1(C)C)[C@]1(C)CC[C@H]([C@H](C)C[C@@H]2OC(=O)C(C)=C2C)[C@@]1(C)[C@H](O)C3` [compound 5, officimalonic acid M]: the concentration for half-maximal inhibition (IC50) (read-out: IC50) turned out to be 42.3 µM.
On to `COc1ccc2cc([C@H](C)C(=O)O)ccc2c1` [naproxen, reference compound], for which the IC50 was found to be 8.2 µM.
